This is an account of results in article PMC12446627, “Novel Thioredoxin reductase 1 inhibitor BS1801 relieves treatment resistance and triggers endoplasmic reticulum stress by elevating reactive oxygen species in glioma” (Redox Biology, 2025).

In experiment [1] the target is T1, Thioredoxin reductase 1 (TrxR1) (Homo sapiens, UniProt Q16881).
T1 construct: gene TXNRD1
The experiment in a line: biochemical.

Experiment [2] addresses T1, Thioredoxin reductase 1 (TrxR1).

pKd: −log10 of the molar value. Where two headings read alike, the source gives them in different places.

T1 sequence (Q16881 whole entry): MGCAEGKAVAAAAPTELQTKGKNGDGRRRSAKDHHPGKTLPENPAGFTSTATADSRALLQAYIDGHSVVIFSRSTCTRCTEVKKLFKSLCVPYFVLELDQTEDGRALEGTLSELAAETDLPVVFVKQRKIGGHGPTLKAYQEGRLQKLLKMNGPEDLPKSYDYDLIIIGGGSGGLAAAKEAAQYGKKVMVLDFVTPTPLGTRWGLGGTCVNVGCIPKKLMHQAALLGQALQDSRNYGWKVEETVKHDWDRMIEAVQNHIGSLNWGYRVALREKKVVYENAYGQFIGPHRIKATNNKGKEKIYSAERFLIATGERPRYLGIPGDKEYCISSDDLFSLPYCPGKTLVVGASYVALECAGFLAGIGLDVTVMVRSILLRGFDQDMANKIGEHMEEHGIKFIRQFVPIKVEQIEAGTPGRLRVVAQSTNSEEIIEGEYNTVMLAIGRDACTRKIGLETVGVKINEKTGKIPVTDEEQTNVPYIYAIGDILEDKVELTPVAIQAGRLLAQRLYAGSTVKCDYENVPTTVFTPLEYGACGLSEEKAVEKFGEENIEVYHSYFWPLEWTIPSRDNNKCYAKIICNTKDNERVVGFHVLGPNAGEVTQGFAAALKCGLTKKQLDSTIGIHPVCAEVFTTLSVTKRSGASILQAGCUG

As a reminder, the pKd is the negative decadic logarithm of the Kd, by convention in mol/L. Low readings indicate a high Kd, high ones a low Kd. `O=c1c2ccccc2[se]n1CCCCn1[se]c2ccccc2c1=O` [BS1801, 2,2'-(butane-1,4-diyl)bis(benzo[d] [1,2]selenazol-3(2H)-one)] showed a pKd in experiment [1] of 5.61.
On to `CC[P](CC)(CC)=[Au][S][C@@H]1O[C@H](COC(C)=O)[C@@H](OC(C)=O)[C@H](OC(C)=O)[C@H]1OC(C)=O` [auranofin], for which, in experiment [2], the pKd is 5.29.
